The subject of test [1] is human coronary artery endothelial cells (HCAEC). Nature of the test: HCAEC migration on coated stainless steel strips. The format is cell-based. To be noted: strips pre-coated with 10 μM peptide; 48 hours; uncoated stainless steel normalized to 1; p<0.01. An excerpt:
Migration and proliferation of endothelial cells on biomaterials can impact the rates of reendothelization and angiogenesis, which can be important during the development and success of implantable medical devices. In this experiment, the effect of a surface-binding cell adhesion polypeptide on the motility of human coronary artery endothelial cells (HCAEC) on a stainless steel substrate was examined in vitro. The surface-binding cell adhesion polypeptide used in this example included DOPA as a surface binding moiety, a (ALA-Aib)3 linker, and the recognition sequence for laminin receptors (YIGSR) as the cell adhesion polypeptide [(DOPA)2-(ALA-Aib)3-YIGSR-OH, hereinafter PEPTIDE-1] (synthesized at the MGH Peptide/Protein Core Facility, Harvard Medical School, Boston, Mass.).
Human coronary artery endothelial cells (HCAEC, available from Cell Applications, Inc., San Diego, Calif.) were used in this study. The substrates were sterile stainless steel strips [3.5″×0.308″×0.031″] or sterile stainless steel strips coated with PEPTIDE-1.
Collagen gels were prepared using the following protocol: One 10 mg vial of high concentration (HC) Type I collagen (Rat tail, from BD Biosciences, San Jose, Calif.) was diluted with distilled sterile H2O to a final volume of 38 ml and mixed thoroughly without introducing bubbles (by pipetting up and down). […]

Test [2] is described as follows: Langmuir isotherm, quartz crystal microbalance with dissipation (QCM-D). It counts as binding. Here is the method:
Stainless Steel Quartz Crystals (Q-Sense, QSX 304) were cleaned with a UV/Ozone treatment (Bioforce, UV […], Model No. […] The crystals were then immersed in a 2% sodium dodecyl sulfate (SDS) (MPI, Product No. 811036) in dH2O solution for 5 minutes, washed thoroughly with dH2O, N2 dried, and UV/Ozone treated for an additional 10 minutes. Surface Characterization: The QCM-D measurements (Q-Sense E4) were made with a solution flow rate of 100 μL per minute. The experiment was temperature controlled at 25° C. In the experiments, four samples were tested at one time using the QCM-D. Each experiment included running PBS for approximately 10 minutes to establish a stable baseline. The peptide solutions were then added at various concentrations until the change in frequency was 2 Hz per 30 minutes or less. The final step was to wash with PBS for 30 minutes or until the change in frequency was 2 Hz per 30 minutes or less. For analysis purposes (Sauerbrey model, Q-Tools), generally the third overtone was used from each sample.

The procedure of test [3]: A blank solution with PBS only was also prepared.
8 mm Liberte WH stents were placed in the wells of a 48-well polystyrene plate and 240 μl of each peptide concentration (including the blank) was then added to each well. The plates were then incubated for at least 1 hr at room temperature (RT) with gentle shaking (100 rpm) to allow for binding to occur. Excess peptide solution was removed and discard using a micropipette.
The stents were then washed 3 times with 1.5 ml PBS-Tween, with approximately 30 sec of shaking at 150 rpm between washes. 1.5 ml of 1% bovine serum albumin (BSA) in PBS (blocking solution) was then added to each stent and incubated for 1 hr at RT with gentle shaking (100 rpm) to allow for blocking to occur. After 1 hr, excess blocking solution was removed and discarded with a micropipette. The stent was then washed 3 times with 1.5 ml PBS-Tween using the wash method described above.
300 μl of Streptavidin-AP (alkaline phosphatase) solution was added to each stent at 1/1000 in TBS+1% BSA and incubated for 30 min at room temperature with gentle shaking (100 rpm). Excess Streptavidin solution was then removed and discarded. The stents were then washed 2 times with 1.5 ml PBS-Tween and then transferred to a set of new wells on the same plate using tweezers. Once the stents were moved, they were then washed once more with 1.5 ml PBS-Tween. 300 μl of the chromogen p-nitrophenyl phosphate (PNPP) was added to each stent in the 48 well plate. The plate was then placed on the shaker platform and incubated for 5 minutes at 100 rpm to allow color development to occur. 10 μl of sodium hydroxide (NaOH) was then added to the wells of a 96 well tissue culture plate. To stop the color development, 100 μl of the solution in each stent containing well was transferred to a well containing NaOH in the 96 well plate.
Optical density (OD) was determined by reading the 96 well plate in a plate reader (Spectramax Plus, Molecular Devices) at 405 nm in endpoint mode. The measured OD for the blank was subtracted from the ODs for all other solutions. The resulting ODs were plotted (y-axis) vs. concentration (μM) (log x-axis).
The OD at 5 min (405 nm) was measured at 1 hr, 4 hr and 24 hrs as described above.
The OD at 5 min (405 nm) was measured and the EC50 was determined as described above.

For test [4] the following is noted: on the order of; cited from earlier work.

Where two headings read alike, the source gives them in different places.

(DOPA)2-(ALA-Aib)3-YIGSR-OH [PEPTIDE-1]: the “HCAEC migration compared to stainless steel alone” value in test [1] came out at 1.7 fold.

Usually Kd stands for a measure of binding affinity in units of concentration. A lower Kd goes with a tighter complex. In turn, (Dopa)2-(Ala-Aib)3-RIGSY-OH [PEPTIDE-3] registered an EC50 in test [2] (QCM-D, 25° C.) of 280 nM. Further, the affinity in test [2] (QCM-D, 25° C., Langmuir isotherm fit), expressed as Kd, was 260 nM.

As for “(DOPA)2-(ALA-Aib)3-RIGSY-(Biotin)-OH [PEPTIDE-2]”, the EC50 was 310 nM in test [3] (incubation time study, 1 hr); 300 nM in test [3] (incubation time study, 4 hr); 270 nM in test [3] (incubation time study, 24 hr); roughly 370 nM in test [3] (read-out: half-maximal concentration (EC50), concentration range study, coating 1 hour at room temperature). Besides, in test [2] (greater affinity than non-specific protein BSA), the “affinity for stainless steel in comparison to BSA” value is listed as “approx. 3 orders of magnitude”.

Take `N[C@@H](Cc1ccc(O)c(O)c1)C(=O)O` [DOPA, 3,4 dihydroxyphenylalanine]: the binding constant in test [4] is reported as ~10^16.

As for “bovine serum albumin [BSA, reference compound]”, the EC50 in test [2] (QCM-D, 25° C.) was no less than 100000 nM.

Values taken from US20090018642A1, “Methods to improve the stability of celluar adhesive proteins and peptides” (BOSTON SCIENTIFIC SCIMED, INC., priority 2007, published 2009).
